Data as given in ChEMBL document CHEMBL1201862, “PubChem BioAssay data set” (2004).
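Compound exposure: 48 hours, 5 concentrations, 96-well plates. Abbreviation: GI50, concentration required for 50% inhibition of growth.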 Activity calls are given as the source filed them. Rule as the data show it: active = GI50 up to about 1.1 µM and inactive = higher.

Key:
Test in all cases: NCI-60 cell line screen, 48 h
786-0 = tested on: 786-0
A498 = tested on: A498
A549 = tested on: A549
ACHN = tested on: ACHN
BT-549 = tested on: BT-549
CAKI-1 = tested on: CAKI-1
CCRF-CEM = tested on: CCRF-CEM
COLO 205 = tested on: COLO 205
DU-145 = tested on: DU-145
EKVX = tested on: EKVX
HCT-116 = tested on: HCT-116
HCT-15 = tested on: HCT-15
HL-60 = tested on: HL-60
HOP-62 = tested on: HOP-62
HOP-92 = tested on: HOP-92
HT-29 = tested on: HT-29
Hs-578T = tested on: Hs-578T
IGROV-1 = tested on: IGROV-1
K562 = tested on: K562
KM12 = tested on: KM12
LOX IMVI = tested on: LOX IMVI
M14 = tested on: M14
MCF7 = tested on: MCF7
MDA-MB-231 = tested on: MDA-MB-231
MDA-MB-435 = tested on: MDA-MB-435
MDA-N = tested on: MDA-N
MOLT-4 = tested on: MOLT-4
Malme-3M = tested on: Malme-3M
NCI-H226 = tested on: NCI-H226
NCI-H23 = tested on: NCI-H23
NCI-H522 = tested on: NCI-H522
NCI/ADR-RES = tested on: NCI/ADR-RES
OVCAR-3 = tested on: OVCAR-3
OVCAR-4 = tested on: OVCAR-4
OVCAR-5 = tested on: OVCAR-5
OVCAR-8 = tested on: OVCAR-8
PC-3 = tested on: PC-3
RPMI-8226 = tested on: RPMI-8226
RXF 393 = tested on: RXF 393
SF-268 = tested on: SF-268
SF-295 = tested on: SF-295
SF-539 = tested on: SF-539
SK-MEL-28 = tested on: SK-MEL-28
SK-MEL-2 = tested on: SK-MEL-2
SK-MEL-5 = tested on: SK-MEL-5
SN12C = tested on: SN12C
SNB-19 = tested on: SNB-19
SW-620 = tested on: SW-620
T47D = tested on: T47D
TK-10 = tested on: TK-10
U-251 = tested on: U-251
UACC-257 = tested on: UACC-257
UACC-62 = tested on: UACC-62
UO-31 = tested on: UO-31
NCI-H460 = tested on: NCI-H460
SNB-75 = tested on: SNB-75

## O=C1CCC(=O)N1CNc1ccc2c(c1)S(=O)(=O)c1ccccc1O2
786-0
  GI50: > 100 µM (inactive)
A498
  GI50: > 100 µM (inactive)
A549
  GI50: > 100 µM (inactive)
ACHN
  GI50: > 100 µM (inactive)
BT-549
  GI50: > 100 µM (inactive)
CAKI-1
  GI50: > 100 µM (inactive)
CCRF-CEM
  GI50: > 100 µM (inactive)
COLO 205
  GI50: > 100 µM (inactive)
DU-145
  GI50: > 100 µM (inactive)
EKVX
  GI50: 46 µM (inactive)
HCT-116
  GI50: > 100 µM (inactive)
HCT-15
  GI50: > 100 µM
HL-60
  GI50: > 100 µM (inactive)
HOP-62
  GI50: > 100 µM (inactive)
HOP-92
  GI50: > 100 µM (inactive)
HT-29
  GI50: > 100 µM (inactive)
Hs-578T
  GI50: > 100 µM (inactive)
IGROV-1
  GI50: > 100 µM (inactive)
K562
  GI50: > 100 µM (inactive)
KM12
  GI50: > 100 µM (inactive)
LOX IMVI
  GI50: > 100 µM (inactive)
M14
  GI50: > 100 µM (inactive)
MCF7
  GI50: > 100 µM (inactive)
MDA-MB-231
  GI50: > 100 µM (inactive)
MDA-MB-435
  GI50: > 100 µM (inactive)
MDA-N
  GI50: > 100 µM (inactive)
MOLT-4
  GI50: > 100 µM (inactive)
Malme-3M
  GI50: > 100 µM (inactive)
NCI-H226
  GI50: > 100 µM (inactive)
NCI-H23
  GI50: > 100 µM (inactive)
NCI-H522
  GI50: > 100 µM (inactive)
NCI/ADR-RES
  GI50: > 100 µM (inactive)
OVCAR-3
  GI50: > 100 µM (inactive)
OVCAR-4
  GI50: > 100 µM (inactive)
OVCAR-5
  GI50: > 100 µM (inactive)
OVCAR-8
  GI50: > 100 µM (inactive)
PC-3
  GI50: > 100 µM (inactive)
RPMI-8226
  GI50: 54.7 µM (inactive)
RXF 393
  GI50: > 100 µM (inactive)
SF-268
  GI50: > 100 µM (inactive)
SF-295
  GI50: > 100 µM (inactive)
SF-539
  GI50: > 100 µM (inactive)
SK-MEL-28
  GI50: > 100 µM (inactive)
SK-MEL-2
  GI50: > 100 µM (inactive)
SK-MEL-5
  GI50: > 100 µM (inactive)
SN12C
  GI50: > 100 µM (inactive)
SNB-19
  GI50: > 100 µM (inactive)
SW-620
  GI50: > 100 µM (inactive)
T47D
  GI50: > 100 µM (inactive)
TK-10
  GI50: > 100 µM (inactive)
U-251
  GI50: > 100 µM (inactive)
UACC-257
  GI50: > 100 µM (inactive)
UACC-62
  GI50: > 100 µM (inactive)
UO-31
  GI50: > 100 µM (inactive)

## NC(C(=O)OC(=O)c1ccccc1)C(=O)OC(=O)c1ccccc1
786-0
  GI50: > 100 µM (inactive)
A498
  GI50: > 100 µM (inactive)
A549
  GI50: > 100 µM (inactive)
ACHN
  GI50: > 100 µM (inactive)
BT-549
  GI50: > 100 µM (inactive)
CAKI-1
  GI50: > 100 µM (inactive)
CCRF-CEM
  GI50: > 100 µM (inactive)
COLO 205
  GI50: > 100 µM (inactive)
DU-145
  GI50: > 100 µM (inactive)
EKVX
  GI50: > 100 µM (inactive)
HCT-116
  GI50: > 100 µM (inactive)
HCT-15
  GI50: > 100 µM
HOP-62
  GI50: > 100 µM (inactive)
HT-29
  GI50: > 100 µM (inactive)
Hs-578T
  GI50: 59.3 µM (inactive)
K562
  GI50: > 100 µM (inactive)
KM12
  GI50: > 100 µM (inactive)
LOX IMVI
  GI50: > 100 µM (inactive)
M14
  GI50: > 100 µM (inactive)
MCF7
  GI50: > 100 µM (inactive)
MDA-MB-231
  GI50: > 100 µM (inactive)
MDA-MB-435
  GI50: > 100 µM (inactive)
MDA-N
  GI50: > 10 µM (inactive)
MOLT-4
  GI50: > 100 µM (inactive)
Malme-3M
  GI50: > 100 µM (inactive)
NCI-H226
  GI50: > 100 µM (inactive)
NCI-H23
  GI50: > 100 µM (inactive)
NCI-H460
  GI50: > 100 µM (inactive)
NCI-H522
  GI50: > 100 µM (inactive)
NCI/ADR-RES
  GI50: > 100 µM (inactive)
OVCAR-3
  GI50: > 100 µM (inactive)
OVCAR-4
  GI50: > 100 µM (inactive)
OVCAR-5
  GI50: > 100 µM (inactive)
OVCAR-8
  GI50: > 100 µM (inactive)
PC-3
  GI50: > 100 µM (inactive)
RPMI-8226
  GI50: > 100 µM (inactive)
RXF 393
  GI50: > 100 µM (inactive)
SF-268
  GI50: > 100 µM (inactive)
SF-295
  GI50: > 100 µM (inactive)
SF-539
  GI50: > 100 µM (inactive)
SK-MEL-28
  GI50: > 100 µM (inactive)
SK-MEL-2
  GI50: > 100 µM (inactive)
SK-MEL-5
  GI50: > 100 µM (inactive)
SN12C
  GI50: > 100 µM (inactive)
SNB-19
  GI50: > 100 µM (inactive)
SNB-75
  GI50: > 100 µM (inactive)
SW-620
  GI50: > 100 µM (inactive)
T47D
  GI50: > 100 µM (inactive)
TK-10
  GI50: > 100 µM (inactive)
U-251
  GI50: > 100 µM (inactive)
UACC-257
  GI50: > 100 µM (inactive)
UO-31
  GI50: > 100 µM (inactive)
